In PubChem BioAssay (NCI):
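The compound was tested at five concentrations on cells cultured in 96-well plates, with a 48-hour exposure period. Here, GI50 denotes the concentration required for 50% inhibition of growth. TGI marks complete inhibition of growth.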

Assays:
Assay in all cases: NCI tumour cell line growth inhibition, 48 h
UACC-257 melanoma = test system: UACC-257 melanoma
A549 NSCLC = test system: A549 NSCLC
ACHN renal = test system: ACHN renal
MDA-MB-231 breast = test system: MDA-MB-231 breast
MDA-MB-435 = test system: MDA-MB-435
NCI-H522 lung = test system: NCI-H522 lung
HCC-2998 colon = test system: HCC-2998 colon
UACC-62 melanoma = test system: UACC-62 melanoma
NCI-H23 lung = test system: NCI-H23 lung
MALME-3M melanoma = test system: MALME-3M melanoma
SNB-19 CNS = test system: SNB-19 CNS
OVCAR-5 ovarian = test system: OVCAR-5 ovarian
HOP-92 NSCLC = test system: HOP-92 NSCLC
NCI-H226 lung = test system: NCI-H226 lung
NCI-H460 lung = test system: NCI-H460 lung
RPMI-8226 leukemia = test system: RPMI-8226 leukemia
TK-10 renal = test system: TK-10 renal
SK-MEL-5 melanoma = test system: SK-MEL-5 melanoma
MDA-MB-468 breast = test system: MDA-MB-468 breast
SK-OV-3 ovarian = test system: SK-OV-3 ovarian
A498 renal = test system: A498 renal
COLO 205 colon = test system: COLO 205 colon
HOP-62 NSCLC = test system: HOP-62 NSCLC
CAKI-1 renal = test system: CAKI-1 renal
SN12C renal = test system: SN12C renal
SW-620 colon = test system: SW-620 colon

With `COc1cccc(COc2ccc(/C=C3\Oc4cc(O)ccc4C3=O)cc2)c1` as the molecule, how does the GI50 (UACC-257 melanoma) read?
The GI50 was over 100 µM.

And the TGI (UACC-257 melanoma)?
The TGI was over 100 µM.

And the GI50 (A549 NSCLC)?
Its GI50 is over 100 µM.

What about the TGI (A549 NSCLC) of the same molecule?
Its TGI is over 100 µM.

And the GI50 (ACHN renal)?
The GI50 was 4.97 µM.

And the TGI (ACHN renal)?
The TGI was over 100 µM.

And the GI50 (MDA-MB-231 breast)?
Its GI50 is over 100 µM.

What about the TGI (MDA-MB-231 breast) of the same molecule?
The TGI was over 100 µM.

And the GI50 (MDA-MB-435)?
The GI50 was over 100 µM.

And the TGI (MDA-MB-435)?
The TGI was over 100 µM.

And the GI50 (NCI-H522 lung)?
The GI50 was over 100 µM.

And the TGI (NCI-H522 lung)?
The TGI was over 100 µM.

And the GI50 (HCC-2998 colon)?
Its GI50 is over 100 µM.

And the TGI (HCC-2998 colon)?
Its TGI is over 100 µM.

And the GI50 (UACC-62 melanoma)?
The GI50 was over 100 µM.

And the TGI (UACC-62 melanoma)?
The TGI was over 100 µM.

What about the GI50 (NCI-H23 lung) of the same molecule?
The GI50 was over 100 µM.

And the TGI (NCI-H23 lung)?
Its TGI is over 100 µM.

And the GI50 (MALME-3M melanoma)?
The GI50 was over 100 µM.

And the TGI (MALME-3M melanoma)?
Its TGI is over 100 µM.

What about the GI50 (SNB-19 CNS) of the same molecule?
The GI50 was over 100 µM.

And the TGI (SNB-19 CNS)?
The TGI was over 100 µM.

And the GI50 (OVCAR-5 ovarian)?
The GI50 was over 100 µM.

What about the TGI (OVCAR-5 ovarian) of the same molecule?
The TGI was over 100 µM.

What about the GI50 (HOP-92 NSCLC) of the same molecule?
The GI50 was 2.62 µM.

What about the TGI (HOP-92 NSCLC) of the same molecule?
The TGI was over 100 µM.

And the GI50 (NCI-H226 lung)?
The GI50 was over 100 µM.

And the TGI (NCI-H226 lung)?
The TGI was over 100 µM.

What about the GI50 (NCI-H460 lung) of the same molecule?
The GI50 was over 100 µM.

And the TGI (NCI-H460 lung)?
Its TGI is over 100 µM.

What about the GI50 (RPMI-8226 leukemia) of the same molecule?
The GI50 was over 100 µM.

And the TGI (RPMI-8226 leukemia)?
Its TGI is over 100 µM.

And the GI50 (TK-10 renal)?
Its GI50 is over 100 µM.

What about the TGI (TK-10 renal) of the same molecule?
Its TGI is over 100 µM.

What about the GI50 (SK-MEL-5 melanoma) of the same molecule?
The GI50 was over 100 µM.

And the TGI (SK-MEL-5 melanoma)?
Its TGI is over 100 µM.

And the GI50 (MDA-MB-468 breast)?
Its GI50 is 42.5 µM.

What about the TGI (MDA-MB-468 breast) of the same molecule?
Its TGI is over 100 µM.

What about the GI50 (SK-OV-3 ovarian) of the same molecule?
Its GI50 is over 100 µM.

And the TGI (SK-OV-3 ovarian)?
The TGI was over 100 µM.

And the GI50 (A498 renal)?
Its GI50 is over 100 µM.

And the TGI (A498 renal)?
Its TGI is over 100 µM.

What about the GI50 (COLO 205 colon) of the same molecule?
Its GI50 is over 100 µM.

And the TGI (COLO 205 colon)?
The TGI was over 100 µM.

What about the GI50 (HOP-62 NSCLC) of the same molecule?
Its GI50 is over 100 µM.

And the TGI (HOP-62 NSCLC)?
The TGI was over 100 µM.

And the GI50 (CAKI-1 renal)?
Its GI50 is 85.2 µM.

What about the TGI (CAKI-1 renal) of the same molecule?
The TGI was over 100 µM.

And the GI50 (SN12C renal)?
The GI50 was over 100 µM.

What about the TGI (SN12C renal) of the same molecule?
Its TGI is over 100 µM.

And the GI50 (SW-620 colon)?
Its GI50 is 23.1 µM.

What about the TGI (SW-620 colon) of the same molecule?
Its TGI is over 100 µM.
